# Counter-ions that a name gives are not always drawn.
# Legend:
# Format in all cases: cell-based
# [1] = test system: Human umbilical venous endothelial cells (HUVECs); experiment: Gene expression analysis (GeneChip HuGene FL array) in TNFα-stimulated HUVECs; conditions: Example 10 at 1 μM, TSA at 10 μM
# Procedure: Human umbilical venous endothelial cells (HUVECs) were placed in 10 cm dishes (3×10^5 cells/dish). Two days thereafter, Trichostatin A (TSA, produced by Upstate) dissolved in dimethyl sulfoxide (DMSO) and the compound prepared in Example 10 dissolved in DMSO were individually added to a final concentrations of 10 μM and 1 μM, respectively. Each sample was stimulated with TNFα (final concentration: 10 ng/mL, Genzyme-Techne). Four hours later, total RNA was extracted with ISOGEN (Nippon Gene Co., Ltd.). The subsequent procedure was performed in accordance with the manufacturer's protocol (Affymetrix). From the thus obtained total RNA, mRNA was purified by a conventional method. cDNA was synthesized from the purified mRNA, and then biotin-labeled cRNA was synthesized by in vitro transcription. The cRNA was purified and subjected to heat treatment for fragmentation. The fragmented cRNA was used in gene expression analysis.
# Method of gene expression analysis: The thus-prepared fragmented cRNA was injected to a HuGene human FL array (Affymetrix), and allowed to hybridize for 16 hours at 45° C. After washing, streptavidin labeled with phycoerythrin, and biotinylated anti-streptavidin antibody were added to each sample in order to cause reaction. Gene expression information was read by use of a dedicated scanner for GeneChip™ (Hewlett Packard). The thus-obtained information was analyzed with GeneChip Software (Affymetrix) for comparison in terms of level of expression.
# [2] = test system: PC-3 (prostatic carcinoma); experiment: Cancer cell growth inhibition, sulforhodamine B colorimetry; conditions: PC-3, incubation two days
# Procedure: (§1) Cultured human cancer cells were placed in a 96-well plate. On the following day, a solution of the compound prepared in Example 10 (in five concentrations resulting from 10-fold stepwise dilution: 10^−4, 10^−5, 10^−6, 10^−7, or 10^−8 M) was added, followed by incubation for two days. Cell count after growth was determined in each plate through colorimetry using sulforhodamine B. The concentration at which the cell count after growth was inhibited to 50% of that of the cell count of the control (in the absence of the compound prepared in Example 10) was calculated (GI50). Simultaneously, on the basis of the cell count just before addition of the compound prepared in Example 10 (time zero), the following value (concentration) was calculated. • TGI: a concentration at which cell growth is inhibited to a cell count equal to that at time zero (concentration at which no change in cell count is observed) • LC50: a concentration at which cell count is reduced to 50% of the cell count at time zero (cell-killing effect).
# MKN74 (stomach cancer) = experiment: as above; conditions: MKN74, incubation two days
# Procedure: as §1
# OVCAR-3 (ovarian cancer) = experiment: as above
# Procedure: as §1
# ACHN (renal cancer) = experiment: as above; conditions: incubation two days
# Procedure: as §1
# MCF-7 (breast cancer) = experiment: as above; conditions: MCF-7, incubation two days
# Procedure: as §1
# DMS114 (lung cancer) = experiment: as above; conditions: DMS114, incubation two days
# Procedure: as §1
# SF-539 (brain tumor) = experiment: as above; conditions: SF-539, incubation two days
# Procedure: as §1
# HCC2998 (colon cancer) = experiment: as above; conditions: HCC2998, incubation two days
# Procedure: as §1
# LOX-IMVI (melanoma) = experiment: as above; conditions: incubation two days
# Procedure: as §1
# [3] = test system: cultured human cancer cells; experiment: Cancer cell growth inhibition, sulforhodamine B colorimetry, overall statement; conditions: result in words
# Procedure: as §1
# [4] = out of 52 genes increased twice or more by TNFα
# [5] = Homo sapiens, 48 h, read-out: LC50 (the source's name)
smiles,measurement,setting,value
"COc1ccc(N(Cc2ccnc(-c3cc(OC)c(OC)c(OC)c3)c2)C2CCN(Cc3ccnc(-c4cc(OC)c(OC)c(OC)c4)c3)CC2)cc1 [Example 10, 4-[N-(4-methoxyphenyl)-N-[[2-(3,4,5-trimethoxypheny)pyridin-4-yl]methyl]amino]-1-[[2-(3,4,5-trimethoxyphenyl)pyridin-4-yl]methyl]piperidine Trihydrochloride]",mRNA expression level of ABC transporter B2,"[1]; TNFα 10 ng/mL, 4 h",69
same,mRNA expression level of B94,"[1]; TNFα 10 ng/mL, 4 h",1010
same,mRNA expression level of BCL3,"[1]; TNFα 10 ng/mL, 4 h",125
same,mRNA expression level of Cox-2,"[1]; TNFα 10 ng/mL, 4 h",0
same,mRNA expression level of EphrinA1,"[1]; TNFα 10 ng/mL, 4 h",148
same,mRNA expression level of Gro1,"[1]; TNFα 10 ng/mL, 4 h",614
same,mRNA expression level of I kappa B alpha,"[1]; TNFα 10 ng/mL, 4 h",1259
same,mRNA expression level of IAP homolog B,"[1]; TNFα 10 ng/mL, 4 h",42
same,mRNA expression level of ICAM-1,"[1]; TNFα 10 ng/mL, 4 h",2174
same,mRNA expression level of IFNGR2,"[1]; TNFα 10 ng/mL, 4 h",186
same,mRNA expression level of IL-7R,"[1]; TNFα 10 ng/mL, 4 h",44
same,mRNA expression level of M-Ras-regulated GEF,"[1]; TNFα 10 ng/mL, 4 h",37
same,mRNA expression level of MCP-1,"[1]; TNFα 10 ng/mL, 4 h",43
same,mRNA expression level of Na/K-ATPase beta-1,"[1]; TNFα 10 ng/mL, 4 h",78
same,mRNA expression level of Nef associated factor 1,"[1]; TNFα 10 ng/mL, 4 h",496
same,mRNA expression level of OB-cadherin-2,"[1]; TNFα 10 ng/mL, 4 h",24
same,mRNA expression level of RDC1,"[1]; TNFα 10 ng/mL, 4 h",27
same,mRNA expression level of Spliceosomal Protein Sap 49,"[1]; TNFα 10 ng/mL, 4 h",40
same,mRNA expression level of TRAF1,"[1]; TNFα 10 ng/mL, 4 h",88
same,mRNA expression level of VCAM-1,"[1]; TNFα 10 ng/mL, 4 h",83
same,mRNA expression level of beta-galactoside alpha-2; 6-sialyltransferase,"[1]; TNFα 10 ng/mL, 4 h",14
same,mRNA expression level of caspase-like apoptosis regulatory protein 2 (clarp),"[1]; TNFα 10 ng/mL, 4 h",76
same,mRNA expression level of cytoplasmic antiproteinase 2 (CAP2),"[1]; TNFα 10 ng/mL, 4 h",78
same,mRNA expression level of ets-2,"[1]; TNFα 10 ng/mL, 4 h",90
same,mRNA expression level of exodus-1,"[1]; TNFα 10 ng/mL, 4 h",310
same,mRNA expression level of fractalkine,"[1]; TNFα 10 ng/mL, 4 h",7
same,mRNA expression level of junB,"[1]; TNFα 10 ng/mL, 4 h",210
same,mRNA expression level of lymphotoxin beta,"[1]; TNFα 10 ng/mL, 4 h",−56
same,mRNA expression level of metalloproteinase stromelysin-2,"[1]; TNFα 10 ng/mL, 4 h",54
same,mRNA expression level of ninjurin1,"[1]; TNFα 10 ng/mL, 4 h",135
same,mRNA expression level of p50-NF-kappa B homolog,"[1]; TNFα 10 ng/mL, 4 h",33
same,number of genes whose expression was enhanced,[1]; [4],6 genes
same,number of genes whose expression was inhibited,[1]; [4],25 genes
same,GI50,"[2]; Homo sapiens, 48 h",26.3 µM
same,CC50,[2]; [5],> 100 µM
same,TGI,[2],>100 µM
same,GI50,"MKN74 (stomach cancer); Homo sapiens, MKN-74, 48 h",0.026 µM
same,CC50,"MKN74 (stomach cancer); Homo sapiens, MKN-74, 48 h, read-out: LC50 (the source's name)",> 100 µM
same,TGI,MKN74 (stomach cancer),0.56 µM
same,GI50,"OVCAR-3 (ovarian cancer); Homo sapiens, 48 h, OVCAR-3, incubation two days",0.35 µM
same,CC50,"OVCAR-3 (ovarian cancer); Homo sapiens, OVCAR-3, 48 h, read-out: LC50",> 100 µM
same,TGI,"OVCAR-3 (ovarian cancer); OVCAR-3, incubation two days",39 µM
same,GI50,"ACHN (renal cancer); Homo sapiens, 48 h",1.9 µM
same,CC50,ACHN (renal cancer); [5],> 100 µM
same,TGI,ACHN (renal cancer),>100 µM
same,GI50,"MCF-7 (breast cancer); Homo sapiens, MCF7, 48 h",0.16 µM
same,CC50,"MCF-7 (breast cancer); Homo sapiens, MCF7, 48 h, read-out: LC50 (the source's name)",> 100 µM
same,TGI,MCF-7 (breast cancer),>100 µM
same,TGI,DMS114 (lung cancer),2.6 µM
same,GI50,"DMS114 (lung cancer); Homo sapiens, DMS-114, 48 h",0.038 µM
same,CC50,"DMS114 (lung cancer); Homo sapiens, DMS-114, 48 h, read-out: LC50 (the source's name)",> 100 µM
same,GI50,"SF-539 (brain tumor); Homo sapiens, 48 h",0.83 µM
same,LC50 (concentration reducing cell count to 50% of time-zero count),"SF-539 (brain tumor); Homo sapiens, 48 h",> 100 µM
same,TGI,SF-539 (brain tumor),>100 µM
same,TGI,HCC2998 (colon cancer),10 µM
same,GI50,"HCC2998 (colon cancer); Homo sapiens, HCC 2998, 48 h",0.33 µM
same,CC50,"HCC2998 (colon cancer); Homo sapiens, HCC 2998, 48 h, read-out: LC50 (the source's name)",40 µM
same,GI50,"LOX-IMVI (melanoma); Homo sapiens, 48 h",0.18 µM
same,CC50,LOX-IMVI (melanoma); [5],41 µM
same,TGI,LOX-IMVI (melanoma),1.2 µM
same,growth inhibitory effect on cultured human cancer cells,[3],strong growth inhibitory effect
